Data from patent US10076519B2 (CYTOKINETICS, INC., priority 2010, dated 2018).

System: rabbit skeletal myofibrils (fast skeletal myofibrils)
Experiment: Activation of fast skeletal myofibrils (PUMA assay, PK/LDH-coupled ATPase at pCa25)
Type: biochemical
Conditions: AC1.4 determined according to the procedure of Example 39; reported as class symbols
How it was run: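 Detergent-washed rabbit psoas myofibrils (~90% fast fibres, calcium-regulated) assayed at calcium giving 25% of maximal ATPase rate (pCa25). ADP turnover coupled via pyruvate kinase/lactate dehydrogenase to NADH oxidation, read at 340 nm. Buffer 12 mM PIPES, 2 mM MgCl2, 1 mM DTT, pH 6.8; AC1.4 values derived.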

| SMILES | Mean AC1.4 |
| --- | --- |
| CC(C)(CNc1ccc(-c2ccc3[nH]nc(N)c3c2)nn1)c1cccc(C(N)=O)c1 | D (D=>20 uM) |
| NC(=O)c1cccc(-c2ccc(NCCc3ccncc3)nn2)c1 [3-{6-[(2-(4-pyridyl)ethyl)amino]pyridazin-3-yl}benzamide] | D (D=>20 uM) |
| COC(=O)NCc1ccc(-c2ccc(NCC(C)(C)c3ccc(F)cc3)nn2)cn1 | C (C=10-20 uM) |
| NC(=O)c1cccc(-c2ccc(NCCc3ccc(Cl)cc3)nn2)c1 | D (D=>20 uM) |
| CC(C)(CNc1ccc(-c2ccc3[nH]ncc3c2)nn1)c1ccc(F)cc1 [(6-(1H-indazol-5-yl)pyridazin-3-yl)[2-(4-fluorophenyl)-2-methylpropyl]amine] | A (A=<1 uM) |
| CC(C)(CNc1ccc(-c2cncc(C#N)c2)nn1)c1ccccc1Cl [5-(6-{[2-(2-chlorophenyl)-2-methylpropyl]amino}pyridazin-3-yl)pyridine-3-carbonitrile] | B (B=1-10 uM) |
| CC(C)(CNc1ccc(-c2cccnc2O)nn1)c1ccc(F)cc1 [3-(6-{[2-(4-fluorophenyl)-2-methylpropyl]amino}pyridazin-3-yl)pyridin-2-ol] | B (B=1-10 uM) |
| O=C1Cc2c(cccc2-c2ccc(NCC3(c4ncccc4F)CCC3)nn2)N1 | B (B=1-10 uM) |
| CC(C)(C)OC(=O)N(CC(C)(C)c1ccc(F)cc1)c1ccc(-c2cccc(C(N)=O)c2)nn1 | D (D=>20 uM) |
| CC(C)(CNc1ccc(-c2ccc3[nH]c(=O)[nH]c3c2)nn1)c1ccccc1 | A (A=<1 uM) |

Other lines, results leading:

| Mean AC1.4 | SMILES |
| --- | --- |
| B (B=1-10 uM) | COc1ccc(-c2ccc(NCC(C)(C)c3ccc(F)cc3)nn2)nc1 [[2-(4-fluorophenyl)-2-methylpropyl][6-(5-methoxy(2-pyridyl))pyridazin-3-yl]amine] |
| A (A=<1 uM) | Nc1n[nH]c2ccc(-c3ccc(NCC4(c5ncccc5F)CCC4)nn3)cc12 [[6-(3-amino(1H-indazol-5-yl))pyridazin-3-yl]{[(3-fluoro(2-pyridyl))cyclobutyl]methyl}amine] |
| C (C=10-20 uM) | CC(=O)Nc1nc(-c2ccc(NCC(C)(C)c3ccc(F)cc3)nn2)c[nH]1 [N-[4-(6-{[2-(4-fluorophenyl)-2-methylpropyl]amino}pyridazin-3-yl)imidazol-2-yl]acetamide] |
| D (D=>20 uM) | COC(=O)N1CC(CNc2ccc(-c3cccc(C(N)=O)c3)nn2)(c2ncccc2F)C1 [methyl 3-({[6-(3-carbamoylphenyl)pyridazin-3-yl]amino}methyl)-3-(3-fluoro(2-pyridyl))azetidinecarboxylate] |
| B (B=1-10 uM) | CC(C)(CNc1ccc(-c2cc[nH]n2)nn1)c1ccc(F)cc1 [[2-(4-fluorophenyl)-2-methylpropyl](6-pyrazol-3-ylpyridazin-3-yl)amine] |
| A (A=<1 uM) | Nc1ccc(-c2ccc(NCC3(c4ncccc4F)CCC3)nn2)cc1 [[6-(4-aminophenyl)pyridazin-3-yl]{[(3-fluoro(2-pyridyl))cyclobutyl]methyl}amine] |
| D (D=>20 uM) | CCOC(=O)C1(NC(=O)c2ccc(NCC(C)(C)c3ccc(F)cc3)nn2)CC1 [ethyl 1-[(6-{[2-(4-fluorophenyl)-2-methylpropyl]amino}pyridazin-3-yl)carbonylamino]cyclopropane-carboxylate] |

Same assay, conditions: median AC1.4 class, procedure of Example 39

| SMILES | Mean AC1.4 |
| --- | --- |
| NC(=O)c1csc2nc(-c3ccc(NCC4(c5ncccc5F)CCC4)nn3)cn12 [6-[6-({[(3-fluoro-2-pyridyl)cyclobutyl]methyl}ami-no)pyridazin-3-yl]imidazo[2,1-b]1,3-thiazoline-3-carboxamide] | A (A=<1 uM) |
| Fc1cccnc1C1(Nc2ccc(C3=CCCCC3)nn2)CCC1 [(6-cyclohex-1-enylpyridazin-3-yl)[(3-fluoro(2-pyridyl))cyclobutyl]amine] | C (C=10-20 uM) |
| O=C(c1cnc(-c2ccc(NCC3(c4ncccc4F)CCC3)nn2)s1)N1CCOCC1 [2-[6-({[(3-fluoro(2-pyridyl))cyclobutyl]methyl}ami-no)pyridazin-3-yl](1,3-thiazol-5-yl) morpholin-4-yl ketone] | C (C=10-20 uM) |
| Cc1nc(-c2ccc(NCC3(c4ncccc4F)CCC3)nn2)sc1C(N)=O [2-[6-({[(3-fluoro(2-pyridyl))cyclobutyl]methyl}ami-no)pyridazin-3-yl]-4-methyl-1,3-thiazole-5-carboxamide] | B (B=1-10 uM) |
| CC(C)(CNc1ccc(-c2cccc(C(N)=O)c2)nn1)c1ncccc1Cl [3-(6-{[2-(3-chloro(2-pyridyl))-2-methylpropyl]amino}pyridazin-3-yl)benzamide] | A (A=<1 uM) |
| N#C/N=C(/N)c1cnc(-c2ccc(NCC3(c4ncccc4F)CCC3)nn2)s1 [(2E)-3-amino-3-{2-[6-({[(3-fluoro(2-pyridyl))cyclobutyl]methyl}ami-no)pyridazin-3-yl](1,3-thiazol-5-yl)}-2-azaprop-2-enenitrile] | B (B=1-10 uM) |
| N#Cc1ccc(C2(Nc3ccc(-c4cccc(C(N)=O)c4)nn3)CCC2)cc1 | D (D=>20 uM) |
| COC(=O)N1CC(c2ccc(NCC3(c4ncccc4F)CCC3)nn2)C1 | D (D=>20 uM) |
| O=C(OCc1ccccc1)N1CC(c2ccc(NCC3(c4ncccc4F)CCC3)nn2)C1 | D (D=>20 uM) |
| O=C(c1cnc(-c2ccc(NCC3(c4ncccc4F)CCC3)nn2)s1)N1CCC(O)CC1 [2-[6-({[(3-fluoro(2-pyridyl))cyclobutyl]methyl}ami-no)pyridazin-3-yl](1,3-thiazol-5-yl) 4-hydroxypiperidyl ketone] | C (C=10-20 uM) |
| CS(=O)(=O)Nc1cccc(-c2ccc(NC3(c4cccc(OC(F)F)n4)CCC3)nn2)c1 | A (A=<1 uM) |
| CC(C)(Nc1ccc(-c2cc(C(N)=O)ccc2F)nn1)c1ncccc1F [4-fluoro-3-(6-{[1-(3-fluoro(2-pyridyl))-isopropyl]amino}pyridazin-3-yl)benzamide] | B (B=1-10 uM) |
| CC1(Nc2ccc(-c3cc(C(N)=O)ccc3F)nn2)CCC1 | D (D=>20 uM) |
| O=C(O)c1ccc(-c2ccc(NC3(c4ncccc4F)CCC3)nn2)s1 [5-(6-{[(3-fluoro-2-pyridyl)cyclobutyl]amino}pyr-idazin-3-yl)thiophene-2-carboxylic acid] | D (D=>20 uM) |
| O=C(O)c1ccc(F)c(-c2ccc(NC[C@]3(c4ncccc4F)C[C@H](F)C3)nn2)c1 [4-fluoro-3-[6-({[3-fluoro-1-(3-fluoro(2-pyridyl))cyclobutyl]methyl}ami-no)pyridazin-3-yl]benzoic acid] | A (A=<1 uM) |
| CC(C)C(=O)NCc1cnc(-c2ccc(NCC3(c4ncccc4F)CCC3)nn2)s1 [N-({2-[6-({[(3-fluoro(2-pyridyl))cyclobutyl]methyl}ami-no)pyridazin-3-yl](1,3-thiazol-5-yl)}methyl)-2-methylpropanamide] | A (A=<1 uM) |

Same assay, conditions: median AC1.4 reported as class; procedure of Example 39

| SMILES | Mean AC1.4 |
| --- | --- |
| CC(C)(CNc1ccc(-c2ncc(CC(N)=O)s2)nn1)c1ncccc1Cl [2-[2-(6-{[2-(3-chloro(2-pyridyl))-2-methylpropyl]amino}pyridazin-3-yl)-1,3-thiazol-5-yl]acetamide] | B (B=1-10 uM) |
| CNC(C)(C)C(=O)NCc1cnc(-c2ccc(NCC3(c4ncccc4F)CCC3)nn2)s1 [N-({2-[6-({[(3-fluoro(2-pyridyl))cyclobutyl]methyl}ami-no)pyridazin-3-yl](1,3-thiazol-5-yl)}methyl)-2-methyl-2-(methylamino)propanamide] | A (A=<1 uM) |
| COc1c(C#N)cccc1-c1ccc(NC[C@]2(c3ncccc3F)C[C@H](F)C2)nn1 [3-[6-({[3-fluoro-1-(3-fluoro(2-pyridyl))cyclobutyl]methyl}ami-no)pyridazin-3-yl]-2-methoxybenzenecarbonitrile] | C (C=10-20 uM) |
| O=C(N[C@@H]1CS(=O)(=O)C[C@H]1O)c1cccc(-c2ccc(NC[C@]3(c4ncccc4F)C[C@H](F)C3)nn2)c1 [N-((3S,4S)-4-hydroxy-1,1-dioxothiolan-3-yl){3-[6-({[3-fluoro-1-(3-fluoro(2-pyridyl))cyclobutyl]methyl}ami-no)pyridazin-3-yl]phenyl}carboxamide] | B (B=1-10 uM) |

The remaining lines, values ahead:

| Mean AC1.4 | SMILES |
| --- | --- |
| B (B=1-10 uM) | CNC(=O)c1cc(-c2ccc(NC[C@]3(c4ncccc4F)C[C@H](F)C3)nn2)ccc1O [{5-[6-({[3-fluoro-1-(3-fluoro(2-pyridyl))cyclobutyl]methyl}ami-no)pyridazin-3-yl]-2-hydroxyphenyl}-N-methylcarboxamide] |
| B (B=1-10 uM) | O=C(NC1COC1)c1cccc(-c2ccc(NC[C@]3(c4ncccc4F)C[C@H](F)C3)nn2)c1 [{3-[6-({[3-fluoro-1-(3-fluoro(2-pyridyl))cyclobutyl]methyl}ami-no)pyridazin-3-yl]phenyl}-N-oxetan-3-ylcarboxamide] |
| A (A=<1 uM) | CNC(=O)c1cccc(-c2ccc(NC[C@]3(c4ncccc4F)C[C@H](F)C3)nn2)c1 [{3-[6-({[3-fluoro-1-(3-fluoro(2-pyridyl))cyclobutyl]methyl}ami-no)pyridazin-3-yl]phenyl}-N-methylcarboxamide] |
| B (B=1-10 uM) | O=C(Nc1ccon1)c1ccc(NCC2(c3ncccc3F)CCC2)nn1 [[6-({[(3-fluoro(2-pyridyl))cyclobutyl]methyl}ami-no)pyridazin-3-yl]-N-isoxazol-3-ylcarboxamide] |
| B (B=1-10 uM) | Cc1cc(-c2ccc(NC[C@]3(c4ncccc4F)C[C@H](F)C3)nn2)cnc1N [[6-(6-amino-5-methyl(3-pyridyl))pyridazin-3-yl]{[3-fluoro-1-(3-fluoro(2-pyridyl))cyclobutyl]methyl}amine] |
